Values joined by “and” are separate entries in the source; they are usually repeats but may differ in a detail not shown here. Equal entries are not always repeated.
Tests used:
L1210 leukemia = test: Antitumor activity vs transplantable L1210 leukemia (ip) in mice; format: in vivo, mouse; conditions: for Max % T/C: dying mice only; for OD (optimum dose): optimum dose from the L1210 test
Excerpt: The antitumor activities of the complexes provided by the present invention have been determined against L-1210 leukemia in the mouse and, for certain of the complexes, against other mouse tumor systems.
(§1) Results of antitumor testing against the transplantable mouse tumors L1210 leukemia, cisplatin-resistant L1210 leukemia, B16 melanoma, Madison 109 lung carcinoma and colon 26 carcinoma are shown below in Tables 1 and 2.
In Table 1 are shown the maximum % T/C values obtained for each platinum compound versus L1210 leukemia using both single and qd 1→5 dosing.
(§2) The methods used to evaluate the platinum complexes for antitumor activity and toxicity in animals are summarized below. These methods have been published elsewhere in more detail (Rose, et al. Cancer Treat. Rep. 66: 135, 1982; Florczyk, et al, Cancer Treat. Rep. 66: 187, 1982).
(§3) The parent line of L1210 leukemia (L1210) was maintained in DBA/2 mice by ip transplantation of 10^5 cells at weekly intervals. […] B16 malenoma (B16) was maintained by sc transplant in C57BL/6 mice every two weeks. Madison 109 lung carcinoma (M109) and colon 26 carcinoma (C26) were maintained by sc transplant in BALB/c mice every two weeks.
(§4) The level and route of tumor inoculum, host, group size, and drug treatment schedule and route for each tumor type are summarized below in Table 6. Each complex was evaluated initially against L1210 at 4 dose levels per schedule selected on the basis of lethality data provided by the Wadley Institute. In subsequent experiments with the other tumors the complexes were evaluated at a minimum of 3 dose levels selected on the basis of maximum tolerated levels in the L1210 experiments. Cisplatin-treated groups and a saline-treated (or untreated) tumor control group were included in each experiment.
(§5) The L1210 experiments were terminated on Day 30 whereas the B16, C26 and M109 experiments were terminated on Day 60 (some C26 experiments were terminated on Day 75). Mice alive at the termination day were autopsied and considered cured if no tumor was visible. […] A complex was considered active if it produced a % T/C value ≥125.

[1] = tested on: L1210/CDDP (cisplatin resistant line of L1210 leukemia); test: Antitumor activity vs cisplatin-resistant L1210 leukemia (L1210/CDDP) in mice; format: in vivo, mouse
Excerpt: Results of antitumor testing against the transplantable mouse tumors L1210 leukemia, cisplatin-resistant L1210 leukemia, B16 melanoma, Madison 109 lung carcinoma and colon 26 carcinoma are shown below in Tables 1 and 2. […]
as §2, §3, §4, §5

B16 melanoma [2] = test: Antitumor activity vs ip B16 melanoma in mice; format: in vivo, mouse; design: O.D.: unit not given here; conditions: for O.D.: ip B16 (3×; 9×); for Max. % T/C: ip B16 (3×; 9×): q4d × 3 or qd 1-9, ip, dying mice only; for Ratio of Max. % T/C Complex/cDDP: ip B16, relative to concomitant cisplatin
Excerpt: as §2, §3
The level and route of tumor inoculum, host, group size, and drug treatment schedule and route for each tumor type are summarized below in Table 6. Each complex was evaluated initially against L1210 at 4 dose levels per schedule selected on the basis of lethality data provided by the Wadley Institute.
as §5

BDF1 mice [3] = test: Single-dose ip LD50 in BDF1 mice; format: in vivo, mouse; conditions: 30 days observation
Procedure: Single-dose ip LD50 values were determined in BDF1 mice for the indicated complexes.

BDF1 mice [4] = test: Nephrotoxicity: effect on blood urea nitrogen (BUN) in BDF1 mice; conditions: for BUN↑, Mouse: effect relative to cisplatin
Procedure: The other compounds were in such short supply that they were tested for effects on BUN values using the optimum dose (O.D.) from the L1210 test for dose selection.
The toxicity studies were done in male BDF1 mice (25-29 gm) and castrated male Fitch ferrets (1-1.5 kg).
The complexes that were active against L1210 were evaluated for nephrotoxicity by determining their effects on blood urea nitrogen (BUN) levels in mice. Groups of 40-50 mice/experiment were bled from the retro-orbital plexus and individual BUN values determined by a modified urease method using a Centrifichem System 400. The test complex, or saline for controls, was given at several dose levels (5-10 mice/dose) in single ip injections. The highest dose of the complex usually corresponded to its LD50 value or 1.5 times its optimal single dose in the L1210 experiment. At least two lower doses were included to evaluate dose-related effects. The BUN values were measured 4 and 7 days after dosing. BUN values ≥30 mg% were considered indicative of drug-induced nephrotoxicity.

BDF1 mice [5] = test: Deaths (D.14) in the BUN test in BDF1 mice; format: in vivo, mouse
C26 carcinoma = test: Antitumor activity vs ip C26 (colon 26) carcinoma in mice; format: in vivo, mouse; design: O.D.: unit not given here; conditions: for Max. % T/C: ip C26 (2×; 4×): q3d × 2 or qd 1-4, ip, dying mice only; for Ratio of Max. % T/C Complex/cDDP: ip C26, relative to concomitant cisplatin
Excerpt: as §1, §2, §3, §4, §5
8 q3d^b × 2 or qd 1-4, ip

M109 carcinoma = test: Antitumor activity vs ip M109 (Madison 109 lung) carcinoma in mice; format: in vivo, mouse; design: O.D.: unit not given here; conditions: for Max. % T/C: ip M109 (2×; 4×): q3d × 2 or qd 1-4, ip, dying mice only; for O.D.: ip M109 (2×; 4×); for Ratio of Max. % T/C Complex/cDDP: ip M109, relative to concomitant cisplatin
Excerpt: as §1, §2, §3, §4, §5
8 q3d^a × 2 or qd 1-4, ip

B16 melanoma [6] = test: Antitumor activity vs B16 melanoma, sc tumor implant with iv drug dosing; format: in vivo, mouse
Excerpt: ^b Sc tumor implant with iv drug dosing.
as §3, §4, §5

[7] = Solubility stated in the preparation examples
ferret = test: Emetic effects (and lethality) in the ferret; format: in vivo, castrated male Fitch ferrets
Procedure: Selected complexes were evaluated for emetic effects in ferrets. […] The time to the first emetic episode (retching and expulsion of vomitus) and the number of episodes were recorded. […] Subsequent test doses were selected based on the emetic response and lethality of the initial dose.

[8] = L1210, Day 1, in intralipid plus ethanol
[9] = L1210, single dose Day 1, ip, (a), (b) determinations
[10] = L1210, single dose Day 1, ip, dose giving the Max % T/C, same order
[11] = Day 1, in intralipid plus ethanol

Molecule | O.D. (optimal dose) (L1210 leukemia; L1210, QD 1 → 5, ip) | Max % T/C (L1210 leukemia; [9]) | O.D. (optimal dose) (L1210 leukemia; [10]) | OD (optimum dose) (L1210 leukemia) | O.D. (B16 melanoma [2]) | Max. % T/C (B16 melanoma [2]) | LD50 (BDF1 mice [3]) | BUN↑, Mouse (BDF1 mice [4]) | Max % T/C (L1210 leukemia; L1210, QD 1 → 5, ip) | Cures/total ([1]; Day 1) | O.D. (optimal dose) ([1]; Day 1) | Max % T/C ([1]; Day 1, dying mice only) | Ratio of Max. % T/C Complex/cDDP (B16 melanoma [2]) | O.D. (C26 carcinoma; ip C26 (2×; 4×)) | O.D. (M109 carcinoma) | Max. % T/C (M109 carcinoma) | Incidence of BUN > 30 mg % (BDF1 mice [4]; 30 mg/kg ip) | Deaths D.14 (BDF1 mice [5]; 30 mg/kg ip) | Incidence of BUN > 30 mg % (BDF1 mice [4]; 17 mg/kg ip) | Deaths D.14 (BDF1 mice [5]; 17 mg/kg ip) | further results
CCCCB([O-])[O-].N[C@@H]1CCCC[C@H]1N.[Pt+2] (relative stereo) [Example 7, n-butylboronato trans(-)-1,2-diaminocyclohexane platinum(II)] | 1 mg/kg/inj | 179% | 3 mg/kg/inj | 3.6 mg/kg/ip | 1.2 | 120% | 11.3 mg/kg/ip | 0 |  |  |  |  |  |  |  |  |  |  |  |  | O.D. (optimal dose) (L1210 leukemia; [8]): 6 mg/kg/inj; Max % T/C (L1210 leukemia; [8]): 236% and 217%; Cures/total [1, 11]: 5/6; O.D. (optimal dose) [1, 11]: 8 mg/kg/inj; Max % T/C ([1]; Day 1, in intralipid plus ethanol, dying mice only): 427%; Incidence of BUN > 30 mg % (BDF1 mice [4]; 6.4 mg/kg ip): 0/10; Incidence of BUN > 30 mg % (BDF1 mice [4]; 8.5 mg/kg ip): 0/10; Incidence of BUN > 30 mg % (BDF1 mice [4]; 11.3 mg/kg ip): 0/10; Deaths D.14 (BDF1 mice [5]; 6.4 mg/kg ip): 0/10; Deaths D.14 (BDF1 mice [5]; 8.5 mg/kg ip): 0/10; Deaths D.14 (BDF1 mice [5]; 11.3 mg/kg ip): 0/10
N.N.[Cl][Pt][Cl] [Cisplatin, reference compound] |  |  |  | 8 mg/kg/ip |  |  |  |  |  |  |  |  |  |  |  |  |  |  |  |  | Max. % T/C (B16 melanoma [2]; listed as cDDP): 172% and 186% and 191% and 220% and 185% and 212% and 189%; Cures/total (C26 carcinoma; ip C26 (2×; 4×)): 2/8; Max. % T/C (C26 carcinoma; listed as cDDP): 176% and 163% and 144%; O.D. (C26 carcinoma; ip C26 (2×; 4×), listed as cDDP): 4 and 3 and 2.5; Max. % T/C (M109 carcinoma; listed as cDDP): 153% and 175% and 155% and 163% and 142%; O.D. (B16 melanoma [6]): 6; Max. % T/C (B16 melanoma [6]; dying mice only): 152%; Deaths D.14 (BDF1 mice [5]; 8 mg/kg ip, historical ranges, 20160 min): 0-40%; Deaths D.14 (BDF1 mice [5]; 10.5 mg/kg ip, historical ranges, 20160 min): 0-50%; Deaths D.14 (BDF1 mice [5]; 12 mg/kg ip, historical ranges, 20160 min): 20-100%; Deaths D.14 (BDF1 mice [5]; 14 mg/kg ip, historical ranges): 50-100%
phosphonoacetato trans(-)-1,2-diaminocyclohexane platinum(II) [Example 11] | 10 mg/kg/inj | 179% and 225% | 20 mg/kg/inj and 24 mg/kg/inj | 20 mg/kg/ip | 9 | 206% | 20 mg/kg/ip |  | 207% | 2/6 | 24 mg/kg/inj | 240% | .97 | 8 | 10 | 114% | 0/5 | 0/5 |  |  | Max. % T/C (C26 carcinoma): 116%; Ratio of Max. % T/C Complex/cDDP (C26 carcinoma): .81; Ratio of Max. % T/C Complex/cDDP (M109 carcinoma): .74; Incidence of BUN > 30 mg % (BDF1 mice [4]; 20 mg/kg ip): 0/5; Deaths D.14 (BDF1 mice [5]; 20 mg/kg ip): 0/5; Solubility in alcohol ([7]; alcohol): insoluble; Solubility in water [7]: soluble
CC(C)CC(C)(N)CN.[O-]B([O-])O.[Pt+2] (stereo not shown) [Example 10, borato 1,2-diamino-2,4-dimethylpentane platinum(II)] | 10 mg/kg/inj | 171% and 225% | 20 mg/kg/inj and 24 mg/kg/inj | 10-20 mg/kg/ip | 9 | 174% | 30 mg/kg/ip | < | 236% | 5/6 | 24 mg/kg/inj | 307% | .82 | 8 | 5 | 74% | 7/10 | 1/10 | 0/10 | 0/10 | Max. % T/C (C26 carcinoma): 100%; Ratio of Max. % T/C Complex/cDDP (C26 carcinoma): .69; Ratio of Max. % T/C Complex/cDDP (M109 carcinoma): .48; Incidence of BUN > 30 mg % (BDF1 mice [4]; 22.5 mg/kg ip): 1/10; Deaths D.14 (BDF1 mice [5]; 22.5 mg/kg ip): 0/10; Solubility in methanol ([7]; methanol): soluble; Solubility in water [7]: soluble
CCC(=O)C(=O)[O-].CCC(=O)C(=O)[O-].N[C@@H]1CCCC[C@H]1N.[Pt+2] (relative stereo) [Example 5, bis(2-ketobutyrato)trans(-)-1,2-diaminocyclohexane platinum(II)] | 2.5 mg/kg/inj | 186% and 200% | 10 mg/kg/inj and 9 mg/kg/inj | 10 mg/kg/ip | 4 | 163% | 30 mg/kg/ip | 0 | 193% | 2/6 | 9 mg/kg/inj | 144% |  |  | 6 | 131% | 1/9 | 3/10 | 0/10 | 1/10 | Incidence of BUN > 30 mg % (BDF1 mice [4]; 22.5 mg/kg ip): 0/10; Deaths D.14 (BDF1 mice [5]; 22.5 mg/kg ip): 1/10
N[C@@H]1CCCC[C@H]1N.[O]=[Mn](=[O])([O-])[O-].[Pt+2] [Example 8, manganato trans(-)-1,2-diaminocyclohexane platinum(II)] | 2.5 mg/kg/inj | 214% and 186% | 20 mg/kg/inj and 18 mg/kg/inj | 20 mg/kg/ip | 2 | 160% | 31 mg/kg/ip | 0 | 293% |  | 8 mg/kg/inj | 181% |  |  |  |  |  |  | 0/9 | 1/10 | Incidence of BUN > 30 mg % (BDF1 mice [4]; 23 mg/kg ip): 0/7; Incidence of BUN > 30 mg % (BDF1 mice [4]; 31 mg/kg ip): 0/8; Emesis Episodes (ferret; 16 mg/kg iv): 15; Emesis onset in responding animals (ferret; 16 mg/kg iv): 16 min; No. With Emesis/No. tested (ferret; 16 mg/kg iv, 6 h observation): 1/1; acute lethality (ferret; ferret, 16 mg/kg iv): 44 min; Lethal dose (ferret; ferret, doses marked * = Lethal dose): 16 mg/kg iv; Deaths D.14 (BDF1 mice [5]; 23 mg/kg ip): 3/10; Deaths D.14 (BDF1 mice [5]; 31 mg/kg ip): 2/10

Source: patent publication US4562275A, “Antitumor platinum complexes” (priority 1984, dated 1985)
